A short description of this data set: method code SF-AS, from PMID: 8295915.
The term logP denotes a log measure of how a compound divides between an organic and an aqueous phase. Read a low logP as a more hydrophilic compound. `CCNc1nc(C)c(C(=O)CCN2CCOCC2)s1` had a logP of 1.43.

The molecule `CCN(CC)CCC(=O)c1sc(N)nc1C` registered a logP of 1.76. Under `CNc1nc(C)c(C(=O)CCN2CCCCC2)s1` stands 2.21; under `Cc1nc(N)sc1C(=O)CCN1CCCCC1`, 2.13. In turn, `Cc1nc(N)sc1C(=O)CCN1CCCC1` showed a logP of 1.74. As for `Cc1nc(N)sc1C(=O)CCN(C)C`, the logP amounted to 1.47.

The molecule `CCNc1nc(C)c(C(=O)CCN(CC)CC)s1` had a logP of 2.72. Under `CCNc1nc(C)c(C(=O)CCN(C)C)s1` stands 2.21. The molecule `CNc1nc(C)c(C(=O)CCN2CCCC2)s1` displayed a logP of 1.86. For `CNc1nc(C)c(C(=O)CCN2CCOCC2)s1`, the logP worked out at 0.95. `CCNc1nc(C)c(C(=O)CCN2CCCCC2)s1`: the logP was found to be 2.66. Turning to `CNc1nc(C)c(C(=O)CCN(C)C)s1`, the logP was 1.58. `Cc1nc(N)sc1C(=O)CCN1CCOCC1` had a lipophilicity (logP) of 0.82.

The values above are taken from the SangsterLogP compilation.
